Like-named read-outs stand apart in the source and are kept apart here. Some results are limits rather than exact numbers.

This assay addresses SIK2 (Homo sapiens, UniProt Q9H0K1). The experiment in a line: SIK2 Enzymatic Assay High Version 2 (High ATP). It counts as biochemical. In a few lines:
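At room temperature, enzyme (6 nM, 2× final) was preincubated with compound for 30 min, then 6 mM ATP and 400 μM HDAC5tide (both 2× final) were added for 2 h. ADP formed was measured by ADP-Glo Max (2 h reagent, 1 h detection) using luminescence.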

[1] abbreviates: enzyme 6 nM, 6 mM ATP and 400 μM HDAC5tide (each 2× final concentration), 30 minutes pre-incubation, 2 hours, ADP-Glo Max luminescence, read-out: SIK2 high ATP IC50 (μM) (Test Example 2).

SIK2, sequence (Q9H0K1 whole entry, species assumed): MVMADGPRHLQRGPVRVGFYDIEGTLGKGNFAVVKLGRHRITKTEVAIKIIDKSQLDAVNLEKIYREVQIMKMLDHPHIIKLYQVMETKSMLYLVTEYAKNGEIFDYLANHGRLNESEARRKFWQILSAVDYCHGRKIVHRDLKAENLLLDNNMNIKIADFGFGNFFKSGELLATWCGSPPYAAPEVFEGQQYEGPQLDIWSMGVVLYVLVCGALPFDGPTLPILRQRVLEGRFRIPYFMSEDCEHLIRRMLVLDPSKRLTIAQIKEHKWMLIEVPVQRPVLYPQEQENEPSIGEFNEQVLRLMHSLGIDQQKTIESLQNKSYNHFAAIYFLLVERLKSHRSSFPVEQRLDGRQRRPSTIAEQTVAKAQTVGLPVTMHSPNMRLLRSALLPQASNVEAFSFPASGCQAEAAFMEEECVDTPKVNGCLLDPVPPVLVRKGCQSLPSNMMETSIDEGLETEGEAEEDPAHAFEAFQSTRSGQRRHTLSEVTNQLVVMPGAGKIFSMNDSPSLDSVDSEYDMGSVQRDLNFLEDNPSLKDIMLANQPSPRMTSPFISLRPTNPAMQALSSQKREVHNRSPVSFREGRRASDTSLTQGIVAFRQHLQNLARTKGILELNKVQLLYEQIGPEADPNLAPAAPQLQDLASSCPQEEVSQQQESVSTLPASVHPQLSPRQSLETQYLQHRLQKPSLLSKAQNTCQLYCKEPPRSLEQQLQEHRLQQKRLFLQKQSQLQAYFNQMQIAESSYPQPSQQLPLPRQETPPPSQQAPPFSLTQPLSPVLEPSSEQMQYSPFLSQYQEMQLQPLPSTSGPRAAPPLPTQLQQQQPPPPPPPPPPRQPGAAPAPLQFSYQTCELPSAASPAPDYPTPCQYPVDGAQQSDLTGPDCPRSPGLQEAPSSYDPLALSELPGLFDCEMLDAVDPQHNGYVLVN

On to `CC#Cc1cc(-c2ccn3nc(Nc4ccn(C)n4)cc3c2)c(O[C@H]2C[C@H]3COC[C@@H](C2)N3)cn1` [Example 438, N-(1-methylpyrazol-3-yl)-5-[5-[[(1S,5R)-3-oxa-9-azabicyclo[3.3.1]nonan-7-yl]oxy]-2-prop-1-ynyl-4-pyridyl]pyrazolo[1,5-a]pyridin-2-amine], for which it took 0.0102 µM to reach half-maximal inhibition (IC50). Turning to `CC#Cc1cc(-c2ccn3nc(NC(=O)C4CC4)cc3c2)c(O[C@@H]2C[C@H]3COC[C@@H](C2)N3)cn1` [Example 439, N-[5-[5-[[(1S,5R)-3-oxa-9-azabicyclo[3.3.1]nonan-7-yl]oxy]-2-prop-1-ynyl-4-pyridyl]pyrazolo[1,5-a]pyridin-2-yl]cyclopropanecarboxamide], the IC50 (in general, the concentration at which inhibition is half-maximal) was 0.00103 µM. For `CC#Cc1cc(-c2ccn3nc(NC(=O)C4CC4)cc3c2)c(OC[C@@H]2CNCCO2)cn1` [Example 443, N-[5-[5-[[(2S)-morpholin-2-yl]methoxy]-2-prop-1-ynyl-4-pyridyl]pyrazolo[1,5-a]pyridin-2-yl]cyclopropanecarboxamide], under setting [1], the half-inhibitory concentration (IC50) was determined as 0.00436 µM. As to `CCN1CC[C@@H]1COc1cnc(C)cc1-c1ccn2nc(NC(=O)C3CC3)cc2c1` [Example 451, N-[5-[5-[[(2R)-1-ethylazetidin-2-yl]methoxy]-2-methyl-4-pyridyl]pyrazolo[1,5-a]pyridin-2-yl]cyclopropanecarboxamide], the 50% inhibitory concentration (IC50) came out at 0.0182 µM. Consider `Cc1cc(-c2ccn3nc(NC(=O)C4CC4)cc3c2)c(OC[C@H]2CCN2CC(F)(F)F)cn1` [Example 452, N-[5-[2-methyl-5-[[(2R)-1-(2,2,2-trifluoroethyl)azetidin-2-yl]methoxy]-4-pyridyl]pyrazolo[1,5-a]pyridin-2-yl]cyclopropanecarboxamide], for which the concentration for half-maximal inhibition (IC50) came out at 0.015 µM. Consider `Cc1cc(-c2ccn3nc(NC(=O)C4CC4)cc3c2)c(OCC2CN(CCF)C2)cn1` [Example 457, N-[5-[5-[[1-(2-fluoroethyl)azetidin-3-yl]methoxy]-2-methyl-4-pyridyl]pyrazolo[1,5-a]pyridin-2-yl]cyclopropanecarboxamide], for which, under setting [1], the concentration for half-maximal inhibition (IC50) came out at 0.0298 µM. `Cc1cc(-c2ccn3nc(NC(=O)C4CC4)cc3c2)c(O[C@H]2C[C@H]3COC[C@@H](C2)N3C)cn1` [Example 460, N-[5-[2-methyl-5-[[(1S,5R)-9-methyl-3-oxa-9-azabicyclo[3.3.1]nonan-7-yl]oxy]-4-pyridyl]pyrazolo[1,5-a]pyridin-2-yl]cyclopropanecarboxamide] registered a 50% inhibitory concentration (IC50) of 0.0413 µM. Consider `[2H]C([2H])([2H])N1[C@@H]2COC[C@H]1C[C@@H](Oc1cnc(C)cc1-c1ccn3nc(NC(=O)C4CC4)cc3c1)C2` [Example 462, N-[5-[2-methyl-5-[[(1S,5R)-9-(trideuteriomethyl)-3-oxa-9-azabicyclo[3.3.1]nonan-7-yl]oxy]-4-pyridyl]pyrazolo[1,5-a]pyridin-2-yl]cyclopropanecarboxamide], for which the IC50 came to 0.00741 µM. `Cc1cc(-c2ccn3nc(NC(=O)[C@@H]4C[C@H]4C)cc3c2)c(O[C@@H]2[C@@H]3CO[C@H]2CN3)cn1` [Example 463, (1R,2R)-2-methyl-N-[5-[2-methyl-5-[[(1S,4S,7R)-2-oxa-5-azabicyclo[2.2.1]heptan-7-yl]oxy]-4-pyridyl]pyrazolo[1,5-a]pyridin-2-yl]cyclopropanecarboxamide] showed an IC50 of 0.0107 µM. Still for that read-out and setting: then `Cc1cc(-c2ccn3nc(NC(=O)C4CC4)cc3c2)c(O[C@H]2C[C@@H](N)C2)cn1` [Example 464, N-(5-(5-((1s,3s)-3-aminocyclobutoxy)-2-methylpyridin-4-yl)pyrazolo[1,5-a]pyridin-2-yl)cyclopropanecarboxamide], with 0.0116 µM. Take `Cc1cc(-c2ccn3nc(NC(=O)C4CC4)cc3c2)c(O[C@H](CN)c2ccccc2)cn1` [Example 466, N-[5-[5-[(1S)-2-amino-1-phenyl-ethoxy]-2-methyl-4-pyridyl]pyrazolo[1,5-a]pyridin-2-yl]cyclopropanecarboxamide]: under setting [1], the IC50 was found to be 0.00115 µM.

For `Cc1cc(-c2ccn3nc(NC(=O)C4CC4)cc3c2)c(OC[C@H]2CCN2C)cn1` [Example 468, N-[5-[2-methyl-5-[[(2R)-1-methylazetidin-2-yl]methoxy]-4-pyridyl]pyrazolo[1,5-a]pyridin-2-yl]cyclopropanecarboxamide], the concentration for half-maximal inhibition (IC50) turned out to be 0.00813 µM. `Cc1cc(-c2ccn3nc(NC(=O)C4CC4)cc3c2)c(OCC2(c3ccccc3)CNC2)cn1` [Example 470, N-[5-[2-methyl-5-[(3-phenylazetidin-3-yl)methoxy]-4-pyridyl]pyrazolo[1,5-a]pyridin-2-yl]cyclopropanecarboxamide]: the IC50 under setting [1] came out at 0.00511 µM. `Cc1cc(-c2ccn3nc(NC(=O)C4CC4)cc3c2)c(OC[C@H]2NCC2(C)C)cn1` [Example 471, N-[5-[5-[[(2S)-3,3-dimethylazetidin-2-yl]methoxy]-2-methyl-4-pyridyl]pyrazolo[1,5-a]pyridin-2-yl]cyclopropanecarboxamide] showed a half-inhibitory concentration (IC50) of 0.0277 µM. In the case of `Cc1cc(-c2ccn3nc(NC(=O)C4CC4)cc3c2)c(OC[C@H]2N(C)CC2(C)C)cn1` [Example 473, N-[5-[2-methyl-5-[[(2S)-1,3,3-trimethylazetidin-2-yl]methoxy]-4-pyridyl]pyrazolo[1,5-a]pyridin-2-yl]cyclopropanecarboxamide], inhibition was half-maximal at 0.0182 µM (IC50).

`Cc1cnc(OC[C@@H]2CNCCO2)c(-c2ccn3nc(NC(=O)C4CC4)cc3c2)c1` [Example 474, N-[5-[5-methyl-2-[[(2S)-morpholin-2-yl]methoxy]-3-pyridyl]pyrazolo[1,5-a]pyridin-2-yl]cyclopropanecarboxamide]: the IC50 under setting [1] came to 0.0431 µM. Take `N#Cc1ccc(OC[C@H]2CNCCO2)c(-c2ccn3nc(Nc4ccccn4)cc3c2)c1` [Example 478, 4-[[(2R)-morpholin-2-yl]methoxy]-3-[2-(2-pyridylamino)pyrazolo[1,5-a]pyridin-5-yl]benzonitrile]: the IC50 under setting [1] is under 0.000847 µM.

In turn, `CC#Cc1ccc(O[C@H]2C[C@H]3COC[C@@H](C2)N3)c(-c2ccn3nc(NC(=O)C4CC4)cc3c2)c1` [Example 479, N-[5-[2-[[(1R,5S)-3-oxa-9-azabicyclo[3.3.1]nonan-7-yl]oxy]-5-prop-1-ynyl-phenyl]pyrazolo[1,5-a]pyridin-2-yl]cyclopropanecarboxamide] displayed an IC50 of 0.0371 µM. `CCC(=O)c1ccc(O[C@H]2C[C@H]3COC[C@@H](C2)N3)c(-c2ccn3nc(NC(=O)C4CC4)cc3c2)c1` [Example 480, N-[5-[2-[[(1R,5S)-3-oxa-9-azabicyclo[3.3.1]nonan-7-yl]oxy]-5-propanoyl-phenyl]pyrazolo[1,5-a]pyridin-2-yl]cyclopropanecarboxamide] registered a half-maximal inhibitory concentration (IC50) of under 0.000847 µM.

`O=C(Nc1cc2cc(-c3cc(C(F)F)ccc3O[C@H]3C[C@H]4COC[C@@H](C3)N4)ccn2n1)C1CC1` [Example 481, N-[5-[5-(difluoromethyl)-2-[[(1R,5S)-3-oxa-9-azabicyclo[3.3.1]nonan-7-yl]oxy]phenyl]pyrazolo[1,5-a]pyridin-2-yl]cyclopropanecarboxamide] came in with a concentration for half-maximal inhibition (IC50) of under 0.000847 µM. Turning to `CN1[C@@H]2COC[C@H]1C[C@@H](Oc1ccc(C(F)F)cc1-c1ccn3nc(NC(=O)C4CC4)cc3c1)C2` [Example 482, N-[5-[5-(difluoromethyl)-2-[[(1R,5S)-9-methyl-3-oxa-9-azabicyclo[3.3.1]nonan-7-yl]oxy]phenyl]pyrazolo[1,5-a]pyridin-2-yl]cyclopropanecarboxamide], the IC50 is 0.00424 µM. Regarding `Cc1cc(Nc2cc3cc(-c4cc(C#N)ccc4O[C@H]4CC[C@H](O)CC4)ccn3n2)nc(C)n1` [Example 483, 3-[2-[(2,6-dimethylpyrimidin-4-yl)amino]pyrazolo[1,5-a]pyridin-5-yl]-4-(4-hydroxycyclohexoxy)benzonitrile], the IC50 under setting [1] came out at 0.0443 µM.

Regarding `Cc1cc(Nc2cc3cc(-c4cc(C#N)ccc4OCC(C)(C)O)ccn3n2)nc(C)n1` [Example 484, 3-[2-[(2,6-dimethylpyrimidin-4-yl)amino]pyrazolo[1,5-a]pyridin-5-yl]-4-(2-hydroxy-2-methyl-propoxy)benzonitrile], the half-maximal inhibitory concentration (IC50) under setting [1] was found to be 0.0571 µM. The same measure, in the same setting: with `CN1CC(Oc2nnc(Cl)cc2-c2ccn3nc(NC(=O)C4CC4)cc3c2)C1` [Example 485, N-[5-[6-chloro-3-(1-methylazetidin-3-yl)oxy-pyridazin-4-yl]pyrazolo[1,5-a]pyridin-2-yl]cyclopropanecarboxamide] the figure was under 0.000847 µM.

`Cc1cc(-c2ccn3nc(Nc4cnccn4)cc3c2)c(O[C@H]2C[C@H]3COC[C@@H](C2)N3)nn1` [Example 486, 5-[6-methyl-3-[[(1S,5R)-3-oxa-9-azabicyclo[3.3.1]nonan-7-yl]oxy]pyridazin-4-yl]-N-pyrazin-2-yl-pyrazolo[1,5-a]pyridin-2-amine] registered an IC50 of 0.0285 µM.

In the case of `CC(=O)O[C@H]1CC[C@H](Oc2nnc(C)cc2-c2ccn3nc(Nc4cc(C)nc(C)n4)cc3c2)CC1` [Example 487, [4-[4-[2-[(2,6-dimethylpyrimidin-4-yl)amino]pyrazolo[1,5-a]pyridin-5-yl]-6-methyl-pyridazin-3-yl]oxycyclohexyl] acetate], under setting [1], the half-maximal inhibitory concentration (IC50) came to 0.0238 µM. Turning to `CN1CC(Oc2cnc(Cl)cc2-c2ccn3nc(NC(=O)C4CC4)cc3c2)C1` [Example 491, N-[5-[2-chloro-5-(1-methylazetidin-3-yl)oxy-4-pyridyl]pyrazolo[1,5-a]pyridin-2-yl]cyclopropanecarboxamide], the IC50 under setting [1] was determined as 0.0152 µM. The compound `O=C(Nc1cc2cc(-c3cc(Cl)ncc3O[C@@H]3C[C@H]4COC[C@@H](C3)N4)ccn2n1)C1CC1` [Example 492, N-[5-[2-chloro-5-[[(1S,5R)-3-oxa-9-azabicyclo[3.3.1]nonan-7-yl]oxy]-4-pyridyl]pyrazolo[1,5-a]pyridin-2-yl]cyclopropanecarboxamide] gave a half-maximal inhibitory concentration (IC50) of 0.0516 µM. Take `Cc1cc(Nc2cc3cc(-c4cc(C(F)F)ncc4OCC(C)(C)O)ccn3n2)nc(C)n1` [Example 493, 1-[[6-(difluoromethyl)-4-[2-[(2,6-dimethylpyrimidin-4-yl)amino]pyrazolo[1,5-a]pyridin-5-yl]-3-pyridyl]oxy]-2-methyl-propan-2-ol]: under setting [1], the 50% inhibitory concentration (IC50) was found to be 0.0662 µM.

For the origin of these results see patent US20240158392A1 (Janssen Biotech, Inc., priority 2021, published 2024).
